The test system of one assay is Rodentolepis nana. As to the kind of experiment: Cestodicidal activity against Hymenolepis nana infected in po dosed rat administered as single dose. It counts as functional.
Another assay relates to Staphylococcus aureus. The assay is described as follows: Antimicrobial activity against penicillin-resistant Staphylococcus aureus assessed as growth inhibition after 24 hrs by two-fold serial dilution technique. It counts as functional.
Assay [1] concerns Agrobacterium tumefaciens. The assay is described as follows: Antimicrobial activity against Agrobacterium tumefaciens assessed as growth inhibition after 24 hrs by two-fold serial dilution technique. It counts as functional.
A further assay relates to Cryptococcus neoformans. The assay is described as follows: Antimicrobial activity against Cryptococcus neoformans assessed as growth inhibition after 24 hrs by two-fold serial dilution technique. It counts as functional.
The subject of assay [2] is Trichophyton mentagrophytes. As to the kind of experiment: Antimicrobial activity against Trichophyton mentagrophytes assessed as growth inhibition after 24 hrs by two-fold serial dilution technique. It counts as functional.
The subject of the next assay is Microsporum canis. The assay is described as follows: Antimicrobial activity against Microsporum canis assessed as growth inhibition after 24 hrs by two-fold serial dilution technique. It counts as functional.
The subject of another assay is Aspergillus niger. The assay is described as follows: Antimicrobial activity against Aspergillus niger assessed as growth inhibition after 24 hrs by two-fold serial dilution technique. It counts as functional.
In a further assay the test system is Salmonella typhi. The assay is described as follows: Antimicrobial activity against Salmonella typhi assessed as growth inhibition after 24 hrs by two-fold serial dilution technique. It counts as functional, organism-based. Particulars: Salmonella enterica subsp. enterica serovar Typhi.
For a further assay, the system named is Escherichia coli. As to the kind of experiment: Antimicrobial activity against Escherichia coli assessed as growth inhibition after 24 hrs by two-fold serial dilution technique. It counts as functional, organism-based.
For a further assay, the system named is Bacillus subtilis. As to the kind of experiment: Antimicrobial activity against Bacillus subtilis assessed as growth inhibition after 24 hrs by two-fold serial dilution technique. It counts as functional, organism-based.
In a further assay the test system is Candida albicans. The assay is described as follows: Antimicrobial activity against Candida albicans assessed as growth inhibition after 24 hrs by two-fold serial dilution technique. It counts as functional.

SMILES strings stand for the structures. ≈ marks a conversion by molar mass, not a printed value. Calls of active or inactive are those of the source.

Broadly, the MIC is the smallest concentration in the dilution series that meets the test's criterion for growth inhibition.

The compound `O=C(Nc1ccc(N2CCCCCC2)c([N+](=O)[O-])c1)c1cc(Cl)ccc1O` gave an MED98 with Rodentolepis nana of 50 mg/kg. The MIC was 0.0975 µg/mL (≈ 0.25 µM) with Staphylococcus aureus; > 100 µg/mL in assay [1]; > 100 µg/mL in the assay on Cryptococcus neoformans; 25 µg/mL (≈ 64.1 µM) in assay [2]; 25 µg/mL (≈ 64.1 µM) with Microsporum canis; > 100 µg/mL in the assay with Aspergillus niger. Also, the “growth inhibition (GI)” value with Salmonella typhi, in the assay on Escherichia coli, with Bacillus subtilis and in the assay on Candida albicans was “inactive” in each case.
In the assay on Rodentolepis nana, `CN1CCN(c2ccc(NC(=O)c3cc(Cl)ccc3O)cc2[N+](=O)[O-])CC1` returned an MED98 of 100 mg/kg. The minimal inhibitory concentration (MIC) was 0.195 µg/mL (≈ 0.499 µM) with Staphylococcus aureus; 25 µg/mL (≈ 64 µM) in assay [1]; 25 µg/mL (≈ 64 µM) in the assay on Cryptococcus neoformans; 0.195 µg/mL (≈ 0.499 µM) in assay [2]; 0.39 µg/mL (≈ 0.998 µM) in the assay on Microsporum canis; 25 µg/mL (≈ 64 µM) in the assay on Aspergillus niger. Besides, in the assay with Candida albicans, the MIC is 25 µg/mL (≈ 64 µM). For the same compound, the “growth inhibition (GI)” value in the assay with Salmonella typhi, in the assay with Escherichia coli and with Bacillus subtilis was “inactive” in each case.
Take `O=C(Nc1ccc(N2CCC(O)(c3ccccc3)CC2)c([N+](=O)[O-])c1)c1cc(Cl)ccc1O`: the MED98 in the assay on Rodentolepis nana is 250 mg/kg. Besides, the MIC with Staphylococcus aureus was 0.39 µg/mL (≈ 0.833 µM); in assay [1], 25 µg/mL (≈ 53.4 µM); with Cryptococcus neoformans it was 3.12 µg/mL (≈ 6.68 µM); in assay [2], 6.25 µg/mL (≈ 13.4 µM); in the assay with Microsporum canis it was 6.25 µg/mL (≈ 13.4 µM); with Aspergillus niger it was > 100 µg/mL. The “growth inhibition (GI)” value with Salmonella typhi, in the assay on Escherichia coli, with Bacillus subtilis and in the assay on Candida albicans was “inactive” each time.
`O=C(Nc1ccc(N2CCC(c3ccccc3)CC2)c([N+](=O)[O-])c1)c1cc(Cl)ccc1O`: in the assay with Rodentolepis nana, the MED98 stood at 250 mg/kg. Further, the MIC in the assay on Staphylococcus aureus is 0.39 µg/mL (≈ 0.863 µM); in assay [1], 25 µg/mL (≈ 55.3 µM); in the assay with Cryptococcus neoformans, 3.12 µg/mL (≈ 6.92 µM); in assay [2] it was 6.25 µg/mL (≈ 13.8 µM); in the assay with Microsporum canis, 6.25 µg/mL (≈ 13.8 µM); in the assay with Aspergillus niger it was > 100 µg/mL. Further, the “growth inhibition (GI)” value in the assay on Salmonella typhi, in the assay on Escherichia coli, with Bacillus subtilis and with Candida albicans was “inactive” throughout.
In the assay with Rodentolepis nana, `O=C(Nc1ccc([N+](=O)[O-])cc1Cl)c1cc(Cl)ccc1O` [NICLOSAMIDE] registered an MED98 of 50 mg/kg.
Take `O=C(Nc1ccc(N2CCN(c3ccccc3)CC2)c([N+](=O)[O-])c1)c1cc(Cl)ccc1O`: the MED98 in the assay with Rodentolepis nana was found to be 50 mg/kg. Moreover, the MIC is 0.39 µg/mL (≈ 0.861 µM) in the assay on Staphylococcus aureus; > 100 µg/mL in assay [1]; 12.5 µg/mL (≈ 27.6 µM) with Cryptococcus neoformans; 3.12 µg/mL (≈ 6.9 µM) in [2]; 1.56 µg/mL (≈ 3.44 µM) with Microsporum canis; 25 µg/mL (≈ 55.2 µM) in the assay on Aspergillus niger. Besides, the “growth inhibition (GI)” value in the assay with Salmonella typhi, with Escherichia coli, in the assay on Bacillus subtilis and in the assay on Candida albicans was “inactive” throughout.
The compound `CC1CCN(c2ccc(NC(=O)c3cc(Cl)ccc3O)cc2[N+](=O)[O-])CC1` had an MED98 with Rodentolepis nana of 250 mg/kg. In addition, the MIC in the assay with Staphylococcus aureus was 0.0975 µg/mL (≈ 0.25 µM); in [1], 25 µg/mL (≈ 64.1 µM); in the assay with Cryptococcus neoformans, 3.12 µg/mL (≈ 8.02 µM); in assay [2], > 100 µg/mL; in the assay on Microsporum canis, > 100 µg/mL; in the assay on Aspergillus niger, > 100 µg/mL. Further, the “growth inhibition (GI)” value in the assay on Salmonella typhi, in the assay on Escherichia coli, with Bacillus subtilis and in the assay on Candida albicans was “inactive” throughout.
For `CC1CCCCN1c1ccc(NC(=O)c2cc(Cl)ccc2O)cc1[N+](=O)[O-]` (configuration not stated), in the assay with Rodentolepis nana, the MED98 turned out to be 50 mg/kg. In addition, the minimal inhibitory concentration (MIC) with Staphylococcus aureus was 0.0975 µg/mL (≈ 0.25 µM); in [1], > 100 µg/mL; with Cryptococcus neoformans, > 100 µg/mL; in assay [2], 12.5 µg/mL (≈ 32.1 µM); with Microsporum canis, 6.25 µg/mL (≈ 16 µM); in the assay on Aspergillus niger, > 100 µg/mL. Also, the “growth inhibition (GI)” value in the assay with Salmonella typhi, in the assay on Escherichia coli, in the assay on Bacillus subtilis and in the assay with Candida albicans was “inactive” throughout.
Turning to `O=C(Nc1ccc(NC2CCCCC2)c([N+](=O)[O-])c1)c1cc(Cl)ccc1O`, the MED98 in the assay on Rodentolepis nana was 30 mg/kg. In addition, the MIC with Staphylococcus aureus is 0.0975 µg/mL (≈ 0.25 µM); in assay [1] it was > 100 µg/mL; with Cryptococcus neoformans, 25 µg/mL (≈ 64.1 µM); in assay [2], 3.12 µg/mL (≈ 8.02 µM); with Microsporum canis, 3.12 µg/mL (≈ 8.02 µM); in the assay on Aspergillus niger, 25 µg/mL (≈ 64.1 µM). The “growth inhibition (GI)” value with Salmonella typhi, in the assay on Escherichia coli, with Bacillus subtilis and in the assay on Candida albicans was “inactive” each time.
The compound `CCC1CCCCN1c1ccc(NC(=O)c2cc(Cl)ccc2O)cc1[N+](=O)[O-]` (configuration not stated) gave an MED98 in the assay with Rodentolepis nana of 100 mg/kg. Besides, the MIC in the assay with Staphylococcus aureus was 0.39 µg/mL (≈ 0.966 µM); in assay [1], > 100 µg/mL; in the assay with Cryptococcus neoformans, 25 µg/mL (≈ 61.9 µM); in assay [2], 6.25 µg/mL (≈ 15.5 µM); in the assay on Microsporum canis it was 6.25 µg/mL (≈ 15.5 µM); with Aspergillus niger, > 100 µg/mL. The “growth inhibition (GI)” value in the assay with Salmonella typhi, in the assay on Escherichia coli, in the assay with Bacillus subtilis and with Candida albicans was “inactive” in each case.
As to `CC1CCCN(c2ccc(NC(=O)c3cc(Cl)ccc3O)cc2[N+](=O)[O-])C1` (configuration not stated), in the assay on Rodentolepis nana, the MED98 is 250 mg/kg. The MIC is 0.39 µg/mL (≈ 1 µM) in the assay with Staphylococcus aureus; > 100 µg/mL in assay [1]; 25 µg/mL (≈ 64.1 µM) with Cryptococcus neoformans; 6.25 µg/mL (≈ 16 µM) in assay [2]; 3.12 µg/mL (≈ 8.02 µM) in the assay on Microsporum canis; > 100 µg/mL in the assay with Aspergillus niger. Besides, the “growth inhibition (GI)” value in the assay with Salmonella typhi, in the assay with Escherichia coli, in the assay on Bacillus subtilis and in the assay with Candida albicans was “inactive” each time.
Take `O=C(Nc1ccc(Br)cc1)c1cc(Br)cc(Br)c1O` [TRIBROMSALAN]: the MIC in the assay on Staphylococcus aureus was 0.0975 µg/mL (≈ 0.217 µM); in [1], 12.5 µg/mL (≈ 27.8 µM); with Cryptococcus neoformans, 6.25 µg/mL (≈ 13.9 µM); in assay [2], 1.56 µg/mL (≈ 3.47 µM); with Microsporum canis, 0.78 µg/mL (≈ 1.73 µM); with Aspergillus niger, 12.5 µg/mL (≈ 27.8 µM). In addition, the “growth inhibition (GI)” value in the assay on Salmonella typhi, with Escherichia coli and with Bacillus subtilis was “inactive” each time.
In the assay with Rodentolepis nana, `O=C(Nc1ccc(Oc2ccccc2)c([N+](=O)[O-])c1)c1cc(Cl)ccc1O` came in with an MED98 of 250 mg/kg. The MIC was 0.00609 µg/mL (≈ 0.0158 µM) in the assay on Staphylococcus aureus; > 100 µg/mL in assay [1]; > 100 µg/mL with Cryptococcus neoformans; 1.56 µg/mL (≈ 4.05 µM) in assay [2]; 0.78 µg/mL (≈ 2.03 µM) in the assay with Microsporum canis; 25 µg/mL (≈ 65 µM) in the assay with Aspergillus niger. Moreover, the “growth inhibition (GI)” value in the assay with Salmonella typhi, with Escherichia coli, in the assay with Bacillus subtilis and with Candida albicans was “inactive” each time.
In the assay on Rodentolepis nana, `O=C(Nc1ccc(N2CCCCC2)c([N+](=O)[O-])c1)c1cc(Cl)ccc1O` yielded an MED98 of 250 mg/kg. In addition, the MIC is 0.195 µg/mL (≈ 0.519 µM) with Staphylococcus aureus; 12.5 µg/mL (≈ 33.3 µM) in assay [1]; 1.56 µg/mL (≈ 4.15 µM) with Cryptococcus neoformans; > 100 µg/mL in [2]; > 100 µg/mL in the assay with Microsporum canis; 12.5 µg/mL (≈ 33.3 µM) with Aspergillus niger. Moreover, the minimum inhibitory concentration (MIC) in the assay with Candida albicans amounted to 25 µg/mL (≈ 66.5 µM). Further, the “growth inhibition (GI)” value with Salmonella typhi, in the assay with Escherichia coli and in the assay with Bacillus subtilis was “inactive” each time.

The values are drawn from ChEMBL document CHEMBL3272279, “Synthesis of 5-chloro-3'-nitro-4'-substituted salicylanilides, a new series of anthelmintic and antimicrobial agents” (1977).
